We go through 11 compounds from PMC5521769, “Identification of odorant binding proteins and chemosensory proteins in Microplitis mediator as well as functional characterization of chemosensory protein 3” (PLoS ONE, 2017).

Test [1] relates to MmedOBPs and MmedCSPs (MmdeOBP1–10, MmedCSP1). More on the design: method as in PMID 20388293. The settings on record: MmdeOBP1–10 and MmedCSP1; ref [22], [23]; cited from earlier work.
A further test relates to M. mediator. More on the design: method as in PMID 20388293. The settings on record: ref [22], [23]; cited from earlier work.
A further test has as its target recombinant MmedCSP3 (Microplitis mediator, UniProt A0A219T7S8). Briefly: biochemical. The class given is binding. The method, then: The bis-ANS and all compounds were dissolved in HPLC purity-grade methanol with a concentration of 1 mM.
The bound chemical was evaluated based on its fluorescence intensity with the assumption that the protein was 100% active with a stoichiometry of 1: 1 (protein: ligand) saturation. The binding curves were linearized using a Scatchard plot, and the dissociation constants of the competitors were calculated from the corresponding IC50 values based on the following equation: Ki = [IC50] / (1 + [bis-ANS] / Kbis-ANS), where [bis-ANS] is the free concentration of bis-ANS and Kbis-ANS is the dissociation constant of the complex protein / bis-ANS [33].

Setting [2] is: protein and bis-ANS at 2 μM, competitor 2–40 μM, 50 mM Tris-HCl pH 7.4, mean ± SD, text values are ranges over the named group, read-out: Ki, dissociation constant.

Read-outs that look alike come from different tables or passages of the source.

Chain of recombinant MmedCSP3 (A0A219T7S8 entry or part of it): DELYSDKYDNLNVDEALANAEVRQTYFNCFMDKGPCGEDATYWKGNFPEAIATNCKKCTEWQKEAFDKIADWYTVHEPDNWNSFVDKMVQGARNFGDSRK

Turning to `CC/C=C\CCOC(C)=O` [(Z)-3-hexenyl acetate], the “binding affinity to MmedOBPs and MmedCSPs” value in test [1] is “no any binding affinity”. In the test on M. mediator, the “electrophysiological and behavioral responses of M. mediator” value was “could elicit electrophysiological and behavioral responses”.
Take `CCCC/C=C\CCCCCCCCCC=O` [cis-11-hexadecenyl Aldehyde, cis-11-hexadecenyl aldehyde]: on recombinant MmedCSP3 (setting [2]), the Ki – broadly, a measure of affinity in units of concentration, obtained from inhibition or displacement – was 17.2 ± 1.67 µM.
For the compound `CCCC/C=C\CCCCCCCCCCO` [cis-11-hexadecanol], the Ki at recombinant MmedCSP3 (setting [2]) worked out at 17.6 ± 1.19 µM.
On the same count and under the same terms, then `CCCC(=O)OCC` [Ethyl butyrate], with 32.9 ± 7.43 µM; and `CC/C=C/CCCCCCCCCCOC(C)=O` [trans-11-tetradecenyl acetate], with 18.8 ± 2.06 µM.
Take `CCC/C=C/C=O` [(E)-2-hexen-1-al]: the “binding affinity to MmedOBPs and MmedCSPs” value in test [1] was “no any binding affinity”. Besides, the “electrophysiological and behavioral responses of M. mediator” value with M. mediator is “could elicit electrophysiological and behavioral responses”.
With `CCCCCCCC/C=C\CCCCCCCC(=O)O` [Octadecenoic acid], the Ki on recombinant MmedCSP3 (setting [2]) came out at 18.2 ± 1.74 µM.
In the case of `CCCCCCCCCCCCCCCC(=O)O` [Palmitic acid], the inhibitory constant (Ki) at recombinant MmedCSP3 is 22.2 ± 1.82 µM.
Consider `C=C/C=C(\C)CC/C=C(\C)CCC=C(C)C` [TMTT, (3E, 7E)-4,8, 12-trimethyltrideca-1,3,7, 11-tetraene], for which the Ki at recombinant MmedCSP3 (setting [2]) came out at 26.8 ± 1.27 µM.
Take `COC(=O)c1ccccc1O` [Methyl salicylate]: the Ki on recombinant MmedCSP3 turned out to be 39.22 ± 0.25 µM.
For `O=S(=O)(O)c1cccc2c(-c3ccc(Nc4ccccc4)c4c(S(=O)(=O)O)cccc34)ccc(Nc3ccccc3)c12` [bis-ANS, 4, 4’-dianilino-1,1’-binaphthyl-5,5’-sulfonic acid, reference compound], the Kd at recombinant MmedCSP3 (2 μM protein titrated with bis-ANS 2–16 μM, 50 mM Tris-HCl pH 7.4, read-out: dissociation constant of the MmedCSP3 / bis-ANS complexes) stood at 1750 ± 420 nM.
